Assay [1] has as its target T1, menin/MLL (terbium chelate-labeled menin, FITC-MBM1 peptide) (Homo sapiens, UniProt O00255, T541A).
T1 construct: Menin (a.a 1-610-6xhis tag, 2.3 mg/mL in 20 mM Hepes)
T1 sequence (O00255 with tags, fused parts or gaps T541A): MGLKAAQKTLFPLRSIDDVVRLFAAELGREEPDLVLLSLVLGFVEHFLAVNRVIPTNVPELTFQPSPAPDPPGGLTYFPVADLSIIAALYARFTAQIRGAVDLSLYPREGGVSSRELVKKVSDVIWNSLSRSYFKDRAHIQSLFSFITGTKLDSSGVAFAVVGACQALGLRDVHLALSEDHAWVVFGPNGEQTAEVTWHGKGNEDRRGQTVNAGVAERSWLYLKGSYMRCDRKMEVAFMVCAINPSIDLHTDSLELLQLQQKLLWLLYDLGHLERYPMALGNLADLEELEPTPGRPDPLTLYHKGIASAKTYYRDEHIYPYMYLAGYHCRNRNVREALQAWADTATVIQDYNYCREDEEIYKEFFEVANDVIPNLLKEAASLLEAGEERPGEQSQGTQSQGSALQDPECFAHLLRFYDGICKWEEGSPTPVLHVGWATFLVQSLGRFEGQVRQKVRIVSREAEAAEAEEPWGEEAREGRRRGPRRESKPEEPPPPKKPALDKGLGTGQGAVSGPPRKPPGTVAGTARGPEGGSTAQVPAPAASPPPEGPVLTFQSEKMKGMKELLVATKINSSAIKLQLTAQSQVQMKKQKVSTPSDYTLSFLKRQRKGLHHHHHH
The experiment in a line: Menin/MLL homogenous time-resolved fluorescence (HTRF) assay. It counts as binding. The settings on record: 30 min incubation. Here is the method:
1) Menin/MLL Homogenous Time-Resolved Fluorescence (HTRF) Assay
To an untreated, white 384-well microtiter plate was added 40 nL 200× test compound in DMSO and 4 μL 2× terbium chelate-labeled menin (vide infra for preparation) in assay buffer (40 mM Tris HCl, pH 7.5, 50 mM NaCl. 1 mM DTT (dithiothreitol) and 0.05% Pluronic F-127). After incubation of test compound and terbium chelate-labeled menin for 30 min at ambient temperature, 4 μL 2×FITC-MBM1 peptide (FITC-β-alanine-[…]-NH2) (“FITC” means fluorescein isothiocyanate) in assay buffer was added, the microtiter plate centrifuged at 1000 rpm for 1 min and the assay mixtures incubated for 15 min at ambient temperature. The relative amount of menin FITC-MBM1 complex present in an assay mixture is determined by measuring the homogenous time-resolved fluorescence (HTRF) of the terbium/FITC donor/acceptor fluorphore pair using an EnVision microplate reader (ex. 337 nm/terbium em. 490 nm/FITC em. 520 nm) at ambient temperature. The degree of fluorescence resonance energy transfer (the HTRF value) is expressed as the ratio of the fluorescence emission intensities of the FITC and terbium fluorophores (F^em520 nm/F^em490 nm). The final concentrations of reagents in the binding assay are […] terbium chelate-labeled menin, 75 nM FITC-MBM1 peptide and 0.5% DMSO in assay buffer. Dose-response titrations of test compounds are conducted using an 11 point, four-fold serial dilution scheme, starting typically at 10 μM.
Compound potencies were determined by first calculating % inhibition at each compound concentration according to equation 1:
% inhibition=((HC−LC)−(HTRF^compound−LC))/(HC−LC))*100 (Eqn 1)
Where LC and HC are the HTRF values of the assay in the presence or absence of a saturating concentration of a compound that competes with FITC-MBM1 for binding to menin, and HTRF^compound is the measured HTRF value in the presence of the test compound. HC and LC HTRF values represent an average of at least 10 replicates per plate.
% inhibition=Bottom+(Top−Bottom)/(1+10^((log/C50−log[cmpd])*h)) (Eqn 2)
Where Bottom and Top are the lower and upper asymptotes of the dose-response curve, respectively, IC50 is the concentration of compound that yields 50% inhibition of signal and h is the Hill coefficient.
Preparation of Terbium cryptate labeling of Menin: Menin (a.a 1-610-6xhis tag, 2.3 mg/mL in 20 mM Hepes (2-[4-(2-Hydroxyethyl)-1-piperazinyl]ethane sulfonic acid), 80 mM NaCl, 5 mM DTT (Dithiothreitol), pH 7.5) was labeled with terbium cryptate as follows. 200 μg of Menin was buffer exchanged into 1×Hepes buffer. 6.67 μM Menin was incubated with 8-fold molar excess NHS (N-hydroxysuccinimide)-terbium cryptate for 40 minutes at room temperature. Half of the labeled protein was purified away from free label by running the reaction over a NAP5 column with elution buffer (0.1M Hepes, pH 7+0.1% BSA (bovine serum albumin)). The other half was eluted with 0.1 M phosphate buffered saline (PBS), pH7. 400 μl of eluent was collected for each, aliquoted and frozen at −80° C. The final concentration of terbium-labeled Menin protein was 115 μg/mL in Hepes buffer and 85 μg/mL in PBS buffer, respectively.
Background: TR-FRET usually uses a lanthanide donor and a delayed reading to cut background.

The test system of assay [2] is MEIS1 mRNA expression. The experiment in a line: MEIS1 mRNA expression assay (Quantigene Singleplex) in MOLM14 cells. It counts as cell-based, human. Conditions: Homo sapiens, MOLM-14, 48 h, 48 hours incubation. Here is the method: 2b) MEIS1 mRNA Expression Assay
MEIS1 mRNA expression upon treatment of compound was examined by Quantigene Singleplex assay (Thermo Fisher Scientific). This technology allows for direct quantification of mRNA targets using probes hybridizing to defined target sequences of interest and the signal is detected using a Multimode plate reader Envision (PerkinElmer). The MOLM14 cell line was used for this experiment. Cells were plated in 96-well plates at 3,750 cells/well in the presence of increasing concentrations of compounds. After incubation of 48 hours with compounds, cells were lysed in lysis buffer and incubated for 45 minutes at 55° C. Cell lysates were mixed with human MEIS specific capture probe or human RPL28 (Ribosomal Protein L28) specific probe as a normalization control, as well as blocking probes. Cell lysates were then transferred to the custom assay hybridization plate (Thermo Fisher Scientific) and incubated for 18 to 22 hours at 55° C. Subsequently, plates were washed to remove unbound materials followed by sequential addition of preamplifiers, amplifiers, and label probe. Signals (═gene counts) were measured with a Multimode plate reader Envision. IC50S were calculated by dose-response modelling using appropriate software. For all non-housekeeper genes response equal counts corrected for background and relative expression. For each sample, each test gene signal (background subtracted) was divided by the normalization gene signal (RPL28: background subtracted). Fold changes were calculated by dividing the normalized values for the treated samples by the normalized values for the DMSO treated sample. Fold changes of each target gene were used for the calculation of IC50S.

Molecules are shown by their SMILES. A value given as a limit tells only on which side of the number the result lay.

For `CC(=O)N1CCC(CN2CC[C@H](Cc3cn(-c4ccc(F)cc4S4(=O)=NCCC4)c4cncc(C)c34)C2)CC1` (mixture of isomers) [Compound 224], the concentration for half-maximal inhibition (IC50) was 8.66 nM in assay [1] and ~3880 nM in assay [2].

On to `CC(=O)NCC(C1CCN(C(C)=O)CC1)N1CC[C@@H](Cc2cn(-c3ccc(F)cc3C(=O)N(C)C(C)C)c3cncc(C)c23)C1` (mixture of isomers) [Compound 225], for which the IC50 in assay [1] stood at 0.637 nM; in assay [2] it was 340 nM.

As to `CC(=O)N1CCC(N2CC[C@@H](Cc3cn(-c4ccc(F)cc4C(=O)N(C)C(C)C)c4cncc(C)c34)C2)C(C)(C)C1` (mixture of isomers) [Compound 234], the IC50 in assay [1] is ~0.068 nM; in assay [2], 18 nM.

For the compound `CC(=O)N1CCC(N2CC[C@@H](Cc3cn(-c4ccc(F)cc4C(=O)N(C)C(C)C)c4cncc(C)c34)C2)C(CO)C1` (mixture of isomers) [Compound 248], the IC50 was determined as 0.255 nM in assay [1] and 11 nM in assay [2].

Turning to `CCN(C(=O)c1cc(F)ccc1-n1cc(C[C@@H]2CCN(CC3CCNC(=O)CC3)C2)c2c(C)cncc21)C(C)C` (mixture of isomers) [Compound 254], the IC50 worked out at 0.071 nM in assay [1] and 19 nM in assay [2].

`COCCN(C)CCC[C@H](C(C)C)N1CC[C@H](Cc2cn(-c3ccc(F)cc3C(=O)N(C)C(C)C)c3cncc(C)c23)C1` (single isomer, unassigned) [Compound 2a]: the IC50 worked out at 0.024 nM in assay [1] and 36 nM in assay [2].

As to `CC(=O)N1CCN(CCC[C@H](C(C)C)N2CC[C@@H](Cc3cn(-c4ccc(F)cc4C(=O)N(C)C(C)C)c4cncc(C)c34)C2)CC1` (single isomer, unassigned) [Compound 8a], the IC50 in assay [1] came to 0.024 nM; in assay [2], 13 nM.

For the compound `CC(=O)N1CCN(CCC[C@@H](C(C)C)N2CC[C@@H](Cc3cn(-c4ccc(F)cc4C(=O)N(C)C(C)C)c4cncc(C)c34)C2)CC1` (single isomer, unassigned) [Compound 8b], the 50% inhibitory concentration (IC50) is ~7.3 nM in assay [1] and 44 nM in assay [2].

Take `CC(=O)N1CCN(CCC[C@@H](C(C)C)N2CC[C@H](Cc3cn(-c4ccc(F)cc4C(=O)N(C)C(C)C)c4cncc(C)c34)C2)CC1` (single isomer, unassigned) [Compound 9b]: the half-maximal inhibitory concentration (IC50) in assay [1] was determined as 0.975 nM; in assay [2], 42 nM.

Consider `CC(=O)N1C[C@@H]2CN(CCC[C@H](C(C)C)N3CC[C@@H](Cc4cn(-c5ccc(F)cc5C(=O)N(C)C(C)C)c5cncc(Cl)c45)C3)C[C@H]2C1` (single isomer, unassigned) [Compound 18a], for which the IC50 was determined as 0.019 nM in assay [1] and 5 nM in assay [2].

Consider `CC(=O)N1C[C@@H]2CN(CCC[C@@H](C(C)C)N3CC[C@@H](Cc4cn(-c5ccc(F)cc5C(=O)N(C)C(C)C)c5cncc(Cl)c45)C3)C[C@H]2C1` (single isomer, unassigned) [Compound 18b], for which the IC50 in assay [1] was found to be 0.017 nM; in assay [2], 110 nM.

In the case of `CC(=O)N1C[C@@H]2CN(CCC[C@@H](C(C)C)N3CC[C@H](Cc4cn(-c5ccc(F)cc5C(=O)N(C)C(C)C)c5cncc(Cl)c45)C3)C[C@H]2C1` (single isomer, unassigned) [Compound 19b], the 50% inhibitory concentration (IC50) in assay [1] worked out at 0.065 nM; in assay [2], 128 nM.

As to `CC[C@H]([C@H]1C[C@@H](N2C[C@H]3CN(C(C)=O)C[C@@H]3C2)C1)N1CC[C@H](Cc2cn(-c3ccc(F)cc3C(=O)N(C)C(C)C)c3cncc(Cl)c23)C1` (single isomer, unassigned) [Compound 27a], the half-inhibitory concentration (IC50) is 0.012 nM in assay [1] and < 4.1 nM in assay [2].

On to `CC[C@H]([C@H]1C[C@H](N2C[C@H]3CN(C(C)=O)C[C@@H]3C2)C1)N1CC[C@H](Cc2cn(-c3ccc(F)cc3C(=O)N(C)C(C)C)c3cncc(Cl)c23)C1` (single isomer, unassigned) [Compound 27b], for which the values for the IC50 in assay [1] and in assay [2] were 0.038 nM and 19 nM, respectively.

What is called IC50 is the concentration that gives 50% inhibition. Low values mean inhibition by little substance, high ones a need for much substance.

Values taken from US20230250096A1, “SUBSTITUTED PHENYL-1H-PYRROLO[2,3-c] PYRIDINE DERIVATIVES” (Janssen Pharmaceutica NV, priority 2021, published 2023).
